PubChem BioAssay AID328 (DTP/NCI, 2004)
Where “and” joins values, the source holds several entries; their conditions need not be identical. Equal values may be shown once. Inconclusive results and toxic doses are left out. The calls were made as follows: active = survival T/C of 150% or more; inactive = T/C below 125% in these data.

Tested on: BDF1 mice, P388 leukemia ip, median survival T/C
Test: NCI In Vivo Anticancer Drug Screen. Data for tumor model P388 Leukemia (intraperitoneal) in B6D2F1 (BDF1) mice
Conditions: endpoint: median survival time, higher = longer survival
Summary of the method: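 Read-out is survival of treated animals expressed relative to the vehicle group, as a T/C ratio.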

[1] = dose: 50.0 mg/kg/injection, schedule: Q01DX009 (ip), vehicle: saline with Tween-80
[2] = dose: 100.0 mg/kg/injection, schedule: Q04DX003 (ip), vehicle: saline with Tween-80
[3] = dose: 200.0 mg/kg/injection, schedule: Q04DX003 (ip), vehicle: saline with Tween-80
[4] = dose: 400.0 mg/kg/injection, schedule: Q04DX003 (ip), vehicle: saline with Tween-80
[5] = dose: 100.0 mg/kg/injection, schedule: Q01DX009 (ip), vehicle: saline with Tween-80
[6] = dose: 200.0 mg/kg/injection, schedule: Q01DX009 (ip), vehicle: saline with Tween-80

Measured: T/C

CC(=O)C(Cl)C(C)=O.CC(=O)C(Cl)C(C)=O.CO.CO.[Ni]
inactive: dose: 12.0 mg/kg/injection, schedule: Q01DX001 (ip), vehicle: Klucel (hydroxypropylcellulose) (HPC) 108 % of control | dose: 25.0 mg/kg/injection, schedule: Q01DX001 (ip), vehicle: Klucel (hydroxypropylcellulose) (HPC) 95 % of control | dose: 50.0 mg/kg/injection, schedule: Q01DX001 (ip), vehicle: Klucel (hydroxypropylcellulose) (HPC) 112 % of control | dose: 100.0 mg/kg/injection, schedule: Q01DX001 (ip), vehicle: Klucel (hydroxypropylcellulose) (HPC) 104 % of control | dose: 400.0 mg/kg/injection, schedule: Q01DX001 (ip), vehicle: Klucel (hydroxypropylcellulose) (HPC) 118 % of control

CC(=O)Nc1cccc(Cl)c1C
inactive: dose: 8.25 mg/kg/injection, schedule: Q01DX009 (ip), vehicle: saline with Tween-80 100 % of control | dose: 12.4 mg/kg/injection, schedule: Q01DX009 (ip), vehicle: saline with Tween-80 104 % of control | dose: 18.7 mg/kg/injection, schedule: Q01DX009 (ip), vehicle: saline with Tween-80 100 % of control | dose: 28.2 mg/kg/injection, schedule: Q01DX009 (ip), vehicle: saline with Tween-80 100 % of control | dose: 50.0 mg/kg/injection, schedule: Q01DX009 (ip), vehicle: Klucel (hydroxypropylcellulose) (HPC) 100 % of control | [1] 100 % of control | dose: 100.0 mg/kg/injection, schedule: Q01DX009 (ip), vehicle: Klucel (hydroxypropylcellulose) (HPC) 100 % of control | [2] 95 % of control | dose: 200.0 mg/kg/injection, schedule: Q01DX009 (ip), vehicle: Klucel (hydroxypropylcellulose) (HPC) 86 % of control | [3] 100 % of control | [4] 100 % of control

COC1CC(OS(=O)(=O)c2ccc(C)cc2)C(O)C(C)O1 (centres undefined)
inactive: [1] 98 % of control and 97 % of control | [5] 100 % of control and 109 % of control | [2] 99 % of control | [6] 96 % of control and 103 % of control | [3] 97 % of control | [4] 96 % of control

O=C(CC(c1ccccc1)N1CCN(c2ccccc2)CC1)c1ccccc1 (centres undefined)
inactive: dose: 100.0 mg/kg/injection, schedule: Q04DX003 (ip), vehicle: Klucel (hydroxypropylcellulose) (HPC) 100 % of control | dose: 200.0 mg/kg/injection, schedule: Q04DX003 (ip), vehicle: Klucel (hydroxypropylcellulose) (HPC) 100 % of control | dose: 400.0 mg/kg/injection, schedule: Q04DX003 (ip), vehicle: Klucel (hydroxypropylcellulose) (HPC) 100 % of control

O=C(Nc1ccccc1)OCc1ccc(OCc2ccccc2)cc1
inactive: [1] 89 % of control | [5] 122 % of control | [6] 105 % of control

Clc1ccc(-c2ccccc2)cc1Cl
inactive: [1] 115 % of control | [5] 114 % of control | [6] 118 % of control

O=[N+]([O-])c1ccc(N/N=C2/C3CCC(C3)C2C(O)(C(F)(F)F)C(F)(F)F)c([N+](=O)[O-])c1 (centres undefined)
inactive: [2] 90 % of control | [3] 90 % of control | [4] 95 % of control
